Assay results as given in article PMC9926234, “Iterative computational design and crystallographic screening identifies potent inhibitors targeting the Nsp3 macrodomain of SARS-CoV-2” (Proceedings of the National Academy of Sciences of the …, 2023).
Like-named read-outs stand apart in the source and are kept apart here.

Assays:
SARS-CoV-2 NSP3 Mac1 [1] = target: T1, SARS-CoV-2 NSP3 Mac1 (Severe acute respiratory syndrome coronavirus 2, UniProt P0DTD1); format: binding; design: contains a conserved macrodomain enzyme (Mac1); details: for Spearman est (compound concentration vs apparent Tm): DSF dose responsiveness, 1 µM nsp3 mac1, adj p given
Description: DSF and associated compound handling was performed as described ([12]), with 5 µM dye “Fluorescent Yellow” (Jacquard iDye Cat #JID1405) used in place of SYPRO Orange. Compounds were tested in triplicate, at seven concentrations in two-fold serial dilutions, at a top concentration of either 1,000 or 100 μM. To minimize experimental noise arising from plate location-based effects on Tma, all concentrations and replicates for each compound were tested within a single region of the microtiter plates, including a DMSO-only control from which ΔTmas were calculated for that compound. […] For each compound, to determine statistical significance of the dose responsive thermal shift, the Spearman’s coefficient was calculated between compound concentration and ΔTma.

SARS-CoV-2 NSP3 Mac1 [2] = target: T1, SARS-CoV-2 NSP3 Mac1; format: binding; details: for Refined occupancy: ligand occupancy after refinement (phenix.refine); for HIT*: true hit = binding in crystallographic soaking or the HTRF-based binding assay
[3] = PanDDA 1-BDC of the event, compound stock 100 mM, Echo dispense volume 80 nl
[4] = PanDDA event map, 1 minus background density correction, crystal soaking of Mac1
[5] = crystal soak, compound stock 100 mM, Echo dispense volume 80 nl
[6] = ligand modeled in structure, compound stock 100 mM, Echo dispense volume 80 nl
[7] = PanDDA event map 1-BDC, crystal soak, Compound_concentration 100 mM, PanDDA run dmso_34 or nohits_35 per dataset
[8] = crystal soak, Compound_concentration 100 mM, Echo dispense 40 nl, PanDDA run dmso_34 or nohits_35 per dataset
[9] = maximal thermal upshift vs DMSO control

## O=C(O)CC1Cc2ccccc2N1C(=O)c1ccc(NC(=O)NC2CC2)cc1 (stereo not drawn) [8539_0039]
SARS-CoV-2 NSP3 Mac1 [1]
  Spearman est (compound concentration vs apparent Tm): 0.09
SARS-CoV-2 NSP3 Mac1 [1]; maximal thermal upshift
  DSF max dTma: 2.09 ˚C

## COC(=O)C1Cc2c(O)cccc2C1NC(=O)c1ccc(NC(=O)NC2CC2)cc1 (stereo not drawn) [8539_0076]
SARS-CoV-2 NSP3 Mac1 [1]
  Spearman est (compound concentration vs apparent Tm): −0.19
SARS-CoV-2 NSP3 Mac1 [1]; maximal thermal upshift
  DSF max dTma: 0 ˚C

## COC(=O)C1(CO)CCN(c2ncnc3[nH]c4cc(F)ccc4c23)C1 (stereo not drawn) [Compound Z9556]
SARS-CoV-2 NSP3 Mac1 [2]; [3]
  1-BDC: 0.1
SARS-CoV-2 NSP3 Mac1 [2]; [4]
  1-BDC (PanDDA): 0.1
SARS-CoV-2 NSP3 Mac1 [2]; [5]
  PanDDA hit?: TRUE
SARS-CoV-2 NSP3 Mac1 [2]; [6]
  Modeled?: TRUE
SARS-CoV-2 NSP3 Mac1 [2]; crystal soaking of Mac1
  Refined occupancy: 20

## O=C(O)CC1CN(c2ncnc3[nH]c4ccccc4c23)CCO1 (stereo not drawn) [Compound Z9596]
SARS-CoV-2 NSP3 Mac1 [2]; PanDDA 1-BDC of the event, compound stock 100 mM, Echo dispense volume 40 nl
  1-BDC: 0.06
SARS-CoV-2 NSP3 Mac1 [2]; [3]
  1-BDC: 0.09
SARS-CoV-2 NSP3 Mac1 [2]; [4]
  1-BDC (PanDDA): 0.06
SARS-CoV-2 NSP3 Mac1 [2]; crystal soak, compound stock 100 mM, Echo dispense volume 40 nl
  PanDDA hit?: TRUE
SARS-CoV-2 NSP3 Mac1 [2]; [5]
  PanDDA hit?: TRUE
SARS-CoV-2 NSP3 Mac1 [2]; ligand modeled in structure, compound stock 100 mM, Echo dispense volume 40 nl
  Modeled?: TRUE
SARS-CoV-2 NSP3 Mac1 [2]; crystal soaking of Mac1
  Refined occupancy: 12

## O=C1CCCN1CCSc1ncnc2[nH]cnc12 [Compound Z9920]
SARS-CoV-2 NSP3 Mac1 [2]; PanDDA 1-BDC (background density correction) of the event, crystal soak 100 mM, PanDDA run dmso_34
  1-BDC: 0.21
SARS-CoV-2 NSP3 Mac1 [2]; [4]
  1-BDC: 0.21
SARS-CoV-2 NSP3 Mac1 [2]; crystal soak, compound concentration 100 mM, PanDDA run dmso_34, series docking_lead-like_1
  PanDDA hit?: TRUE
SARS-CoV-2 NSP3 Mac1 [2]; ligand modeled in the crystal structure, crystal soak 100 mM, PanDDA run dmso_34
  Modeled?: TRUE
SARS-CoV-2 NSP3 Mac1 [2]; crystal soaking of Mac1
  Refined occupancy: 42

## O=C1CC2(CC2)C(CSc2n[nH]c(-c3ccccn3)n2)O1 (stereo not drawn) [FRESH00010267028]
SARS-CoV-2 NSP3 Mac1 [1]
  Spearman est (compound concentration vs apparent Tm): 0.52
SARS-CoV-2 NSP3 Mac1 [1]; maximal thermal upshift
  DSF max dTma: 0.32 ˚C

## O=S1(=O)CCC2(CCCN(c3ncnc4[nH]c5cc(F)ccc5c34)C2)C1 (stereo not drawn) [LL1_0010]
SARS-CoV-2 NSP3 Mac1 [1]
  Spearman est (compound concentration vs apparent Tm): 0.3
SARS-CoV-2 NSP3 Mac1 [1]; maximal thermal upshift
  DSF max dTma: 0.68 ˚C

## NC(=O)C1CCCN(c2ncnc3[nH]c4cc(F)ccc4c23)C1 (stereo not drawn) [LL1_0016]
SARS-CoV-2 NSP3 Mac1 [1]
  Spearman est (compound concentration vs apparent Tm): 0.18
SARS-CoV-2 NSP3 Mac1 [1]; maximal thermal upshift
  DSF max dTma: 0.6 ˚C

## O=C(O)[C@@H]1[C@@H]2CCN(c3ncnc4[nH]c5cc(F)ccc5c34)C[C@@H]21 [LL114_0037]
SARS-CoV-2 NSP3 Mac1 [2]; [3]
  1-BDC: 0.17
SARS-CoV-2 NSP3 Mac1 [2]; [7]
  1-BDC: 0.17
SARS-CoV-2 NSP3 Mac1 [2]; [4]
  1-BDC (PanDDA): 0.17
SARS-CoV-2 NSP3 Mac1 [2]; [8]
  PanDDA hit?: TRUE
SARS-CoV-2 NSP3 Mac1 [2]; [5]
  PanDDA hit?: TRUE
SARS-CoV-2 NSP3 Mac1 [2]; [6]
  Modeled?: TRUE
SARS-CoV-2 NSP3 Mac1 [2]; crystal soaking of Mac1
  Refined occupancy: 34

## OCC1CN(c2ncnc3[nH]c4cc(F)ccc4c23)CC2(CCC2)O1 (stereo not drawn) [LL123_0025]
SARS-CoV-2 NSP3 Mac1 [2]; [3]
  1-BDC: 0.1
SARS-CoV-2 NSP3 Mac1 [2]; [7]
  1-BDC: 0.09
SARS-CoV-2 NSP3 Mac1 [2]; [4]
  1-BDC (PanDDA): 0.07
SARS-CoV-2 NSP3 Mac1 [2]; PanDDA event map, crystal soak, Compound_concentration 100 mM, Echo_dispense_volume 40 nl
  1-BDC: 0.07
SARS-CoV-2 NSP3 Mac1 [2]; [8]
  PanDDA hit?: TRUE
SARS-CoV-2 NSP3 Mac1 [2]; crystal soak, Compound_concentration 100 mM, Echo_dispense_volume 40 nl, PanDDA run (background map) dmso_34, nohits_35 or nohits_62
  PanDDA hit?: TRUE
SARS-CoV-2 NSP3 Mac1 [2]; [5]
  PanDDA hit?: TRUE
SARS-CoV-2 NSP3 Mac1 [2]; ligand modeled, crystal soak, Compound_concentration 100 mM, Echo_dispense_volume 40 nl
  Modeled?: TRUE
SARS-CoV-2 NSP3 Mac1 [2]; crystal soaking of Mac1
  Refined occupancy: 14
SARS-CoV-2 NSP3 Mac1 [2]
  HIT*: Y

## CNc1ccc(C(=O)N2CC(C(=O)O)CC2(C)C)cn1 (stereo not drawn) [REAL250001652488]
SARS-CoV-2 NSP3 Mac1 [1]
  Spearman est (compound concentration vs apparent Tm): 0.12
SARS-CoV-2 NSP3 Mac1 [1]; maximal thermal upshift
  DSF max dTma: 0.21 ˚C

## NC(=O)c1cc(N2CCCC[C@H]2C(=O)O)ncn1 [REAL250003324764]
SARS-CoV-2 NSP3 Mac1 [1]
  Spearman est (compound concentration vs apparent Tm): 0.14
SARS-CoV-2 NSP3 Mac1 [1]; maximal thermal upshift
  DSF max dTma: 0.15 ˚C

## CNc1ccc(C(=O)N2CC(C(=O)O)CC23CCOCC3)cn1 (stereo not drawn) [REAL300007318908]
SARS-CoV-2 NSP3 Mac1 [1]
  Spearman est (compound concentration vs apparent Tm): 0.29
SARS-CoV-2 NSP3 Mac1 [1]; maximal thermal upshift
  DSF max dTma: 0.04 ˚C

## FC1(F)CCCC(Nc2ncnc3[nH]ccc23)C1 (stereo not drawn) [SRH-0014]
SARS-CoV-2 NSP3 Mac1 [2]; [7]
  1-BDC: 0.09
SARS-CoV-2 NSP3 Mac1 [2]; [8]
  PanDDA hit?: TRUE

## O=C(Cc1ccc2c(c1)CCO2)OCc1cc2ccccc2[nH]c1=O [Z0132]
SARS-CoV-2 NSP3 Mac1 [1]; [9]
  DSF max dTma: 0.21 °C

## CN(Cc1nnc2c(=O)[nH]ccn12)C(=O)COC1CC1 [Z0288]
SARS-CoV-2 NSP3 Mac1 [1]; [9]
  DSF max dTma: 0.49 °C

## Cc1cnc(COC(=O)C(C)(C)c2ccc(O)cc2)o1 [Z0329]
SARS-CoV-2 NSP3 Mac1 [1]; [9]
  DSF max dTma: 0.06 °C

## CC1CN(C(=O)CCc2nc(-c3ccncc3)no2)C1c1ccccc1 (stereo not drawn) [Z0856]
SARS-CoV-2 NSP3 Mac1 [1]; [9]
  DSF max dTma: 0.6 °C

## COc1ccc(Cl)cc1Cn1cnc2c(N)ncnc21 [Z0953]
SARS-CoV-2 NSP3 Mac1 [1]; [9]
  DSF max dTma: 0.27 °C

## O=c1[nH]ccn2c(CSc3nc4ccccc4s3)nnc12 [Z1015]
SARS-CoV-2 NSP3 Mac1 [1]; [9]
  DSF max dTma: 0.67 °C

## Nc1ncnc(SCCc2cccc(Cl)c2Cl)n1 [Z1086]
SARS-CoV-2 NSP3 Mac1 [1]; [9]
  DSF max dTma: 0.21 °C

## Cc1ccc(-c2noc(CCCSC3CCCNC3=O)n2)cc1F (stereo not drawn) [Z1121]
SARS-CoV-2 NSP3 Mac1 [1]; [9]
  DSF max dTma: 0.57 °C

## CN(Cc1cccc(O)c1)C(=O)Cc1ccncc1 [Z1186]
SARS-CoV-2 NSP3 Mac1 [1]; [9]
  DSF max dTma: 0.19 °C

## Nc1ncc(S(=O)(=O)N2CC(F)(F)C[C@H]2C(=O)O)cn1 [Z1314]
SARS-CoV-2 NSP3 Mac1 [2]
  HIT*: Y

## CC(C)c1noc(CCc2nc(-c3ccnc4[nH]ccc34)no2)n1 [Z1347]
SARS-CoV-2 NSP3 Mac1 [1]; [9]
  DSF max dTma: 0 °C

## Cc1cc(CSc2nnc3c(=O)[nH]c4ccccc4n23)no1 [Z1628]
SARS-CoV-2 NSP3 Mac1 [1]; [9]
  DSF max dTma: 0.68 °C

## Cc1ccccc1CNc1ncnc(-c2ccccc2)n1 [Z1635]
SARS-CoV-2 NSP3 Mac1 [1]; [9]
  DSF max dTma: 0.85 °C

## Cc1ccc(C(=O)N2CC[C@H](Oc3ccccc3)C2)cc1O [Z2024]
SARS-CoV-2 NSP3 Mac1 [1]; [9]
  DSF max dTma: 0.36 °C

## O=C(COC(=O)c1ccc2nsnc2c1)c1ccccc1 [Z2380]
SARS-CoV-2 NSP3 Mac1 [1]; [9]
  DSF max dTma: 0.47 °C

## Cc1ccc(CC(=O)OCc2noc(C3CC3)n2)cc1O [Z2995]
SARS-CoV-2 NSP3 Mac1 [1]; [9]
  DSF max dTma: 0.32 °C

## CN(c1cc(NC2CC2)ncn1)C1CCCN(c2cccnn2)C1 (stereo not drawn) [Z3167]
SARS-CoV-2 NSP3 Mac1 [1]; [9]
  DSF max dTma: 0.44 °C

## CN(Cc1ncc(Cl)n1C)c1ncnc(N)n1 [Z3291]
SARS-CoV-2 NSP3 Mac1 [1]; [9]
  DSF max dTma: 0.98 °C

## O=C(Nc1nc2ccccc2c(=O)[nH]1)c1cccnc1 [Z3628]
SARS-CoV-2 NSP3 Mac1 [1]; [9]
  DSF max dTma: 0.49 °C

## CN(C(=O)CN1CCNC(=O)C1)c1ccc(-c2nccs2)cc1 [Z3700]
SARS-CoV-2 NSP3 Mac1 [1]; [9]
  DSF max dTma: 0 °C
